Data published in ChEMBL document CHEMBL5241131, “2-Anilino-4-(1-methyl-1H-pyrazol-4-yl)pyrimidine-derived CDK2 inhibitors as anticancer agents: Design, synthesis & evaluation” (Bioorg Med Chem, 2023).
The source made the active and inactive calls. No cut-off for these calls is given here.

Tests used:
[1] = target: Cyclin-dependent kinase 5/CDK5 activator 1 (Homo sapiens) (UniProt Q00535+Q15078); assay: Inhibition of CDK5/p25 (unknown origin) at 1 uM incubated for 30 to 60 mins presence of dithiothreitol by Cheng-Prusoff equation analysis relative to control; format: protein-complex assay; settings: time 30-60 min
[2] = target: CDK9/cyclin T1 (Homo sapiens) (UniProt O60563+P50750); assay: Inhibition of CDK9/cyclin T1 (unknown origin) at 1 uM incubated for 30 to 60 mins presence of dithiothreitol by Cheng-Prusoff equation analysis relative to control; format: protein-complex assay; settings: time 30-60 min
[3] = target: Cyclin-dependent kinase 2/cyclin E (Homo sapiens) (UniProt P24864+P24941+O96020); assay: Inhibition of CDK2/cyclin E (unknown origin) at 1 uM incubated for 30 to 60 mins presence of dithiothreitol by Cheng-Prusoff equation analysis relative to control; format: protein-complex assay; settings: time 30-60 min
[4] = target: Cyclin-dependent kinase 1/cyclin B (Homo sapiens) (UniProt P06493+P14635+Q8WWL7+O95067); assay: Inhibition of CDK1/Cyclin B (unknown origin) at 1 uM incubated for 30 to 60 mins presence of dithiothreitol by Cheng-Prusoff equation analysis relative to control; format: protein-complex assay; settings: time 30-60 min
A2780 [5] = assay: Antiproliferative activity against human A2780 cells assessed as inhibition of cell growth at 1 uM incubated for 72 hrs by MTT assay; format: functional; design: scale not given: the % may be the effect or the level left
[6] = target: Cyclin-dependent kinase 5/CDK5 activator 1 (Homo sapiens, UniProt Q00535); assay: Inhibition of CDK5/p25 (unknown origin) assessed as inhibition constant incubated for 30 to 60 mins presence of dithiothreitol by Cheng-Prusoff equation analysis; format: protein-complex assay
[7] = target: T1, Cyclin-dependent kinase 1/cyclin B (Homo sapiens, UniProt P06493); assay: Inhibition of CDK1/Cyclin B (unknown origin) assessed as inhibition constant incubated for 30 to 60 mins presence of dithiothreitol by Cheng-Prusoff equation analysis; format: protein-complex assay
[8] = target: T1, Cyclin-dependent kinase 1/cyclin B; assay: Inhibition of CDK1/Cyclin B (unknown origin) assessed as inhibition constant; format: protein-complex assay
[9] = target: T2, Cyclin-dependent kinase 2/cyclin E (Homo sapiens, UniProt P24941); assay: Inhibition of CDK2/cyclin E (unknown origin) assessed as inhibition constant; format: protein-complex assay
A2780 [10] = assay: Antiproliferative activity against human A2780 cells assessed as inhibition of cell growth incubated for 72 hrs by MTT assay; format: functional
[11] = target: T2, Cyclin-dependent kinase 2/cyclin E; assay: Inhibition of CDK2/cyclin E (unknown origin) assessed as inhibition constant incubated for 30 to 60 mins presence of dithiothreitol by Cheng-Prusoff equation analysis; format: protein-complex assay
CDK9/cyclin T1 = CDK9/cyclin T1 (Homo sapiens, UniProt P50750); assay: Inhibition of CDK9/cyclin T1 (unknown origin) assessed as inhibition constant incubated for 30 to 60 mins presence of dithiothreitol by Cheng-Prusoff equation analysis; format: protein-complex assay
CDK9/Cyclin T = CDK9/Cyclin T (Homo sapiens, UniProt P50750); assay: Inhibition of CDK9/cyclin T (unknown origin) assessed as inhibition constant; format: protein-complex assay
U-251 = assay: Antiproliferative activity against human U-251 cells assessed as inhibition of cell growth incubated for 72 hrs by MTT assay; format: functional
MV4-11 = assay: Antiproliferative activity against human MV4-11 cells assessed as inhibition of cell growth incubated for 72 hrs by MTT assay; format: functional
MDA-MB-231 = assay: Antiproliferative activity against human MDA-MB-231 cells assessed as inhibition of cell growth incubated for 72 hrs by MTT assay; format: functional
HT-29 = assay: Antiproliferative activity against human HT-29 cells assessed as inhibition of cell growth incubated for 72 hrs by MTT assay; format: functional
NCI-H82 = assay: Antiproliferative activity against human NCI-H82 cells assessed as inhibition of cell growth incubated for 72 hrs by MTT assay; format: functional
OAW-28 = assay: Antiproliferative activity against human OAW-28 cells assessed as inhibition of cell growth incubated for 72 hrs by MTT assay; format: functional
OVCAR-5 = assay: Antiproliferative activity against human OVCAR-5 cells assessed as inhibition of cell growth incubated for 72 hrs by MTT assay; format: functional
KM12 = assay: Antiproliferative activity against human KM12 cells assessed as inhibition of cell growth incubated for 72 hrs by MTT assay; format: functional
OV-90 = assay: Antiproliferative activity against human OV-90 cells assessed as inhibition of cell growth incubated for 72 hrs by MTT assay; format: functional
[12] = Antiproliferative activity against human COV504 cells assessed as inhibition of cell growth incubated for 72 hrs by MTT assay; format: functional
[13] = Antiproliferative activity against human COV318 cells assessed as inhibition of cell growth incubated for 72 hrs by MTT assay; format: functional
COLO 205 = assay: Antiproliferative activity against human COLO 205 cells assessed as inhibition of cell growth incubated for 72 hrs by MTT assay; format: functional
U-937 = assay: Antiproliferative activity against human U-937 cells assessed as inhibition of cell growth incubated for 72 hrs by MTT assay; format: functional
ES-2 = assay: Antiproliferative activity against human ES2 cells assessed as inhibition of cell growth incubated for 72 hrs by MTT assay; format: functional
NCI-H460 = assay: Antiproliferative activity against human NCI-H460 cells assessed as inhibition of cell growth incubated for 72 hrs by MTT assay; format: functional
HCT-116 [14] = assay: Antiproliferative activity against human HCT-116 cells assessed as inhibition of cell growth incubated for 72 hrs by MTT assay; format: functional
HCT-116 [15] = assay: Induction of cell cycle arrest in human HCT-116 cells assessed as accumulation of cells at sub G1 phase at 1 uM incubated for 24 hrs by propidium iodide staining based flow cytometry (reference value: 0.24%); format: functional
HCT-116 [16] = assay: Induction of apoptosis in human HCT-116 cells assessed as necrotic cells at 1 uM incubated for 72 hrs by AnnexinV-FITC/propidium iodide staining based flow cytometry (Rvb =0.71%); format: functional
HCT-116 [17] = assay: Induction of apoptosis in human HCT-116 cells assessed as late apoptotic cells at 1 uM incubated for 72 hrs by AnnexinV-FITC/propidium iodide staining based flow cytometry (reference value: 2.91%); format: functional
HCT-116 [18] = assay: Induction of apoptosis in human HCT-116 cells assessed as increase in cleaved PARP level at 1 uM incubated for 24 hrs by Western blot analysis; format: functional, cell-based
HCT-116 [19] = assay: Induction of cell cycle arrest in human HCT-116 cells assessed as accumulation of cells at G2/M phase at 1 uM incubated for 24 hrs by propidium iodide staining based flow cytometry (reference value: 28.37%); format: functional
HCT-116 [20] = assay: Induction of apoptosis in human HCT-116 cells assessed as viable cells at 1 uM incubated for 72 hrs by AnnexinV-FITC/propidium iodide staining based flow cytometry (reference value: 93.43%); format: functional; settings: read-out: Activity
HCT-116 [21] = assay: Induction of cell cycle arrest in human HCT-116 cells assessed as accumulation of cells at G1 phase at 1 uM incubated for 24 hrs by propidium iodide staining based flow cytometry (reference value: 51.33%); format: functional
HCT-116 [22] = assay: Induction of cell cycle arrest in human HCT-116 cells assessed as accumulation of cells at S phase at 1 uM incubated for 24 hrs by propidium iodide staining based flow cytometry (reference value: 18.01%); format: functional
HCT-116 [23] = assay: Induction of apoptosis in human HCT-116 cells assessed as early apoptotic cells at 1 uM incubated for 72 hrs by AnnexinV-FITC/propidium iodide staining based flow cytometry (reference value: 2.95%); format: functional

Chain of Cyclin-dependent kinase 5/CDK5 activator 1 (Homo sapiens) (Q00535 whole entry): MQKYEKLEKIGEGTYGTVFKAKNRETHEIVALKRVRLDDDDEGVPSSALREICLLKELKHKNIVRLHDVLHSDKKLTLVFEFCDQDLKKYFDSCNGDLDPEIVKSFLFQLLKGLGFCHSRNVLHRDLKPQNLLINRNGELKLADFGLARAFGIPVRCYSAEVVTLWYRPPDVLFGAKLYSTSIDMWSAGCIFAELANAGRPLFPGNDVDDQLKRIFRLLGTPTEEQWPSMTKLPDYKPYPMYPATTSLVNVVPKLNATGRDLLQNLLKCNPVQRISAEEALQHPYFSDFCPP
Chain of Cyclin-dependent kinase 5/CDK5 activator 1 (Homo sapiens) (Q15078 99-307 partner limits assumed): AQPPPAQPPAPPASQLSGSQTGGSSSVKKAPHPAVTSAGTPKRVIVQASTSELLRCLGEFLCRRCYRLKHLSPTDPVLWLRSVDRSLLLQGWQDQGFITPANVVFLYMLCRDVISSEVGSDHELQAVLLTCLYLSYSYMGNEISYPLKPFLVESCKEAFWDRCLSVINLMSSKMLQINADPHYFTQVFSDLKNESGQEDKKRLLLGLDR
Chain of Cyclin-dependent kinase 5/CDK5 activator 1 (Q00535 whole entry): as the sequence (Q00535 whole entry) above
Chain of Cyclin-dependent kinase 5/CDK5 activator 1 (Q15078 whole entry, further chain): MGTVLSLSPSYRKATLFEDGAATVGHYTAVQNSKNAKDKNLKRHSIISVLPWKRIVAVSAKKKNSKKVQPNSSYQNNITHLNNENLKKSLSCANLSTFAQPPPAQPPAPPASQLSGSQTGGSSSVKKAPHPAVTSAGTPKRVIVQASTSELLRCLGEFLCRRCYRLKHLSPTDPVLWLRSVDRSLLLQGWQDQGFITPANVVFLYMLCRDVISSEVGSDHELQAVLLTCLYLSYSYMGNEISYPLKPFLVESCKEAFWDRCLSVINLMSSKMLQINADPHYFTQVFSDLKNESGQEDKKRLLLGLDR
Chain of CDK9/cyclin T1 (O60563 whole entry): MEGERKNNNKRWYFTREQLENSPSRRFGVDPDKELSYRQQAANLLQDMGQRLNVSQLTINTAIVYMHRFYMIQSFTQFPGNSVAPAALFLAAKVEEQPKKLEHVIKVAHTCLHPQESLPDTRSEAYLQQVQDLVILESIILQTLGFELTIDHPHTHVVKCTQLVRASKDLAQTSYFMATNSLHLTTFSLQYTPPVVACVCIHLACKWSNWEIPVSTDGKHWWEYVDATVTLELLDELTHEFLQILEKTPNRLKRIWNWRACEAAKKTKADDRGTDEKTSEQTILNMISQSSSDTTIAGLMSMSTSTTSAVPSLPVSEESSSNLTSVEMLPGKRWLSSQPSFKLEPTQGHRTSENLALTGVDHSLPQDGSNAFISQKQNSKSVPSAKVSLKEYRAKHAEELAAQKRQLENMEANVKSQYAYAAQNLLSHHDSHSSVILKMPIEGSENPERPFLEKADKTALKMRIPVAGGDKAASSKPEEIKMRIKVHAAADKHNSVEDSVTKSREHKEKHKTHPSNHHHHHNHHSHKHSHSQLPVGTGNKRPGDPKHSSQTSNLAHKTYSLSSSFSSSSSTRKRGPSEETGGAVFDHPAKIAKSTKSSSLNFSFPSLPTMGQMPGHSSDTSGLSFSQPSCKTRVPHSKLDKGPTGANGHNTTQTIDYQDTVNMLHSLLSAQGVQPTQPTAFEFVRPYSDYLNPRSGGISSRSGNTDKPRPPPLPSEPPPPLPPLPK
Chain of CDK9/cyclin T1 (P50750 whole entry): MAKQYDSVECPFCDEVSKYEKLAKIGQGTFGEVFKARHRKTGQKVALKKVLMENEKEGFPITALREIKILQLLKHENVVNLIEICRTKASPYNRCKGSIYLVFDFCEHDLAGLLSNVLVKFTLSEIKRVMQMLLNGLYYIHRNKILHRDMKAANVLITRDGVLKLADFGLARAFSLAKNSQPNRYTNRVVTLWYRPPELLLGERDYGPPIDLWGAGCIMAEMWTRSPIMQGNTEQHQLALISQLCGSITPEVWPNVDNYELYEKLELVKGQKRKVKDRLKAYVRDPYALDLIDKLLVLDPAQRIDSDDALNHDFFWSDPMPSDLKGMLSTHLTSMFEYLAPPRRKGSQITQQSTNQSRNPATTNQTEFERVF
Chain of CDK9/Cyclin T (O60563 whole entry): as the sequence (O60563 whole entry) above
Chain of CDK9/Cyclin T (P50750 whole entry): as the sequence (P50750 whole entry) above
Chain of CDK9/Cyclin T (O60583 whole entry, further chain): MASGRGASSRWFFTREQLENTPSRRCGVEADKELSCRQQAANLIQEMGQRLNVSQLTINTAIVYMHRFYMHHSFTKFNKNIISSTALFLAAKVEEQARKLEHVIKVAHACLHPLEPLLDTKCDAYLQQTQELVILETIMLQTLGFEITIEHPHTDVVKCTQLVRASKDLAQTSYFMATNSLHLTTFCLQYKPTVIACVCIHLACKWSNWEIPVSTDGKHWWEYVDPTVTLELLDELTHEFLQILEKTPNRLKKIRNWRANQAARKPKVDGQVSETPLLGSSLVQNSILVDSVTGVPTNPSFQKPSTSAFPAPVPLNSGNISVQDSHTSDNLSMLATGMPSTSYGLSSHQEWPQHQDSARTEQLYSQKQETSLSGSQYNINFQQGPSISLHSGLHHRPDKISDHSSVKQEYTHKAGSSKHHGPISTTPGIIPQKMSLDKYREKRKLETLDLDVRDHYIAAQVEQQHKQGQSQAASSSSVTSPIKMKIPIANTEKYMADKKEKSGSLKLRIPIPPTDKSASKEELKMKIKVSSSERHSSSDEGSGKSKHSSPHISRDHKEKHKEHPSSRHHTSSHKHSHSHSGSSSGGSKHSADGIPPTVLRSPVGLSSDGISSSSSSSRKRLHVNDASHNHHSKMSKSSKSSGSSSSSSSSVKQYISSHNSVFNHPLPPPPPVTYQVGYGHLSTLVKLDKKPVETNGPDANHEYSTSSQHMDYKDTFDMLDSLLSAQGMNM

SMILES | inhibition [1] | inhibition [2] | inhibition [3] | inhibition [4] | Activity (A2780 [5]) | Ki [6] | Ki [7] | GI50 (A2780 [10]) | Ki [11] | other results
Nc1cc(-c2cnn(Cc3ccccc3)c2)nc(Nc2cccc(S(N)(=O)=O)c2)n1 | 40% | 40% | 53% | 6% | 0% | – | – | – | – | –
Cn1cc(-c2nc(Nc3ccc(S(C)(=O)=O)cc3)ncc2F)cn1 | – | 33% | – | – | 5% | 42 nM | 146 nM | – | – | –
Cn1cc(-c2nc(Nc3ccc(C(F)(F)F)c(Cl)c3)ncc2F)cn1 | 3% | 39% | 10% | 8% | 32% | – | – | – | – | –
CC[C@@H](Nc1nc(NCc2cnc(C)cc2C)c2ncn(C(C)C)c2n1)[C@H](C)O | – | – | – | – | – | – | – | – | – | Ki [8]: 578 nM; Ki [9]: 5 nM
Cn1cc(-c2nc(Nc3ccc(F)c(C(F)(F)F)c3)ncc2F)cn1 | 16% | 51% | 1% | 22% | 28% | – | – | – | – | –
Cn1cc(-c2nc(Nc3cccc(S(=O)(=O)C(F)(F)F)c3)ncc2Cl)cn1 | 58% | 45% | 53% | 2% | 63% | – | – | 125 nM | – | –
Cn1cc(-c2nc(NC3CCN(S(C)(=O)=O)CC3)ncc2F)cn1 | – | 55% | – | – | 17% | 36 nM | 99 nM | – | 18 nM | –
Cn1cc(-c2nc(Nc3ccc(S(=O)(=O)C(F)(F)F)cc3)ncc2F)cn1 | 46% | 6% | 15% | 54% | 54% | – | – | – | 70 nM | –
Cn1cc(-c2nc(NC3CCN(S(C)(=O)=O)CC3)ncc2Cl)cn1 | – | 39% | – | – | 45% | 9 nM | 26 nM | – | 8 nM | –
Cn1cc(-c2nc(Nc3cccc(S(=O)(=O)C(F)(F)F)c3)ncc2F)cn1 | 46% | 20% | 1% | 42% | – | – | – | 215 nM | – | –
Cn1cc(-c2nc(Nc3cccc(S(N)(=O)=O)c3)ncc2Cl)cn1 | – | – | – | – | – | 92 nM | 5 nM | 80 nM | 176 nM | Ki (CDK9/cyclin T1): 301 nM
Cn1cc(-c2nc(Nc3ccc(S(C)(=O)=O)cc3)ncc2Cl)cn1 | – | – | – | – | 63% | 36 nM | 6 nM | – | 7 nM | Ki (CDK9/cyclin T1): 229 nM
Cn1cc(-c2nc(Nc3cccc(Cl)c3)ncc2F)cn1 | 46% | 69% | 57% | 50% | 12% | – | – | – | – | –
C[C@@]1(O)CCC[C@H]1n1c(=O)c(C(F)F)cc2cnc(NC3CCN(S(C)(=O)=O)CC3)nc21 [EBVACICLIB] | – | – | – | – | – | – | – | – | – | Ki (CDK9/Cyclin T): < 19 nM
Cn1cc(-c2nc(Nc3cccc([N+](=O)[O-])c3)ncc2Cl)cn1 | 56% | 73% | 48% | 24% | – | – | – | 7 nM | – | –
Cc1nn(C)cc1-c1nc(NC2CCN(S(C)(=O)=O)CC2)ncc1Cl | – | 27% | – | – | 20% | 2 nM | 12 nM | – | 16 nM | –
Cn1cc(-c2nc(Nc3cccc([N+](=O)[O-])c3)ncc2F)cn1 | 67% | – | – | 54% | – | – | – | 113 nM | 87 nM | Ki (CDK9/cyclin T1): 147 nM
Cn1nccc1-c1nc(Nc2cccc(S(N)(=O)=O)c2)ncc1F | 48% | 59% | – | 65% | 0% | – | – | – | 171 nM | –
Cn1cc(-c2cc(N)nc(Nc3cccc(S(N)(=O)=O)c3)n2)cn1 | 41% | 57% | 13% | 4% | 0% | – | – | – | – | –
Cn1cc(-c2nc(Nc3ccc(S(N)(=O)=O)cc3)ncc2F)cn1 | – | – | – | – | – | 19 nM | 6 nM | 232 nM | 21 nM | Ki (CDK9/cyclin T1): 271 nM
Cn1cc(-c2nc(Nc3cccc(S(N)(=O)=O)c3)ncc2F)cn1 | – | – | – | – | – | 77 nM | 5 nM | 18 nM | 23 nM | GI50 (U-251): 154 nM; GI50 (MV4-11): 32 nM; GI50 (MDA-MB-231): 129 nM; GI50 (HT-29): 81 nM; GI50 (NCI-H82): 119 nM; GI50 (OAW-28): 149 nM; GI50 (OVCAR-5): 80 nM; GI50 (KM12): 90 nM; GI50 (OV-90): 83 nM; GI50 [12]: 106 nM; GI50 [13]: 79 nM; GI50 (COLO 205): 64 nM; Ki (CDK9/cyclin T1): 26 nM; GI50 (U-937): 25 nM; GI50 (ES-2): 109 nM; GI50 (NCI-H460): 162 nM; GI50 (HCT-116 [14]): 65 nM
CNc1nc(C)c(-c2nc(Nc3cccc(S(N)(=O)=O)c3)ncc2F)s1 [ASNUCICLIB] | – | – | – | – | – | – | – | – | – | Activity (HCT-116 [15]): 1.21%; Activity (HCT-116 [16]): 0.95%; Activity (HCT-116 [17]): 6.85%; Activity (HCT-116 [18]): Active; Activity (HCT-116 [19]): 53.11%; viability at 1 µM (HCT-116 [20]): 77%; Activity (HCT-116 [21]): 28.88%; Activity (HCT-116 [22]): 16.81%; Activity (HCT-116 [23]): 15.19%
